Laboratory results reported in patent EP0791603A2, “Pure somatostatin antagonist and methods of use thereof” (American Cyanamid Company, priority 1996, dated 1997).
Positions of bridges follow the written chain, without caps; N, C: chain ends. Non-standard residues stand in square brackets, D forms with d. Residues, ends and D or L forms follow the SMILES beside them. Phe(4-NO2) = N[C@@H](Cc1ccc([N+](=O)[O-])cc1)C(=O)O; dPhe(4-NO2) = N[C@H](Cc1ccc([N+](=O)[O-])cc1)C(=O)O; 2Nal = N[C@@H](Cc1ccc2ccccc2c1)C(=O)O; NMeA = CN[C@@H](C)C(=O)O

Key:
SSTR2 [1] = experiment: Cyclic AMP accumulation in intact cells (forskalin stimulated, adrenal binding protein method); assay type: cell-based; details: % intrinsic activity
Description: Cyclic AMP accumulation assays are used to determine the functional coupling of somatostatin receptors to effectors. All five cloned somatostatin receptors inhibit cyclic AMP accumulation and adenylyl cyclone activity ^1 ^,2,3,4,5. This evaluation measures cyclic AMP accumulation from intact cells using the adrenal binding protein method. Signal transduction by somatostatin is mediated by lowering intracellular c-AMP levels. This functional assay measures the ability of the test compound to inhibit the effect of somatostatin on forskalin stimulated c-AMP levels. ^1 K. Yasuda, S. Rens-Damiano, C. D. Breder, S. F. Law, C. B. Saper, T. Reisine and G. I. Bell, J. Biol. Chem. 267,20422-20428 (1992). ^2 J. F. Bruno, Y. Xu, J. Song and M. Berelowitz, Proc. Natl. Acad. Sci. USA 89, 11151-11155 (1992). ^3 A. M. O'Carrol, S. J. Lolait, M. König and L. Mahan, Mol. Pharmacol. 42, 939-946 (1992). ^4 J. R. Hadcock, J. Strnad and C. M. Eppler, Mol. Pharmacol. 45, 410-416 (1994). ^5 J. Strnad, C. M. Eppler, M. Corbett and J. R. Hadcock, Biochem. Biophys. Res. Commun.191, 968-976 (1993).
Bovine adrenal gland extracts are prepared according to the method of Brown et al^6 with minor modifications. […] Two-four adrenals are thawed and the cortices are separated on ice: chopped into small pieces; resuspended in 1.5 volumes of buffer containing 0.25 M sucrose, 50 mM Tris-HCl pH 7.4, 25 mM KCl, 5 mM MgCl2 and protease inhibitors (5 µg/ml leupeptin, 5µg/ml aprotinin, 100 µg/ml bacitracin, and 100 µg/ml benzamidine; homogenized with a Polytron and centrifuged for 5 minutes. The resultant supernatant is saved and centrifuged for 15 minutes. This resultant supernatant is saved and stored as 1 mL aliquots at -80°C. Four adrenals glands are usually sufficient to prepare 30-50 one mL aliquots. Each preparation is tested with standards at different dilutions before use in the following experiment. ^6 B. L. Brown, J. D. M. Albano, R. P. Ekins and A. M. Sgherzi, Biochem. J. 121, 561-562 (1971).
Somatostatin-mediated inhibition of cyclic AMP accumulation is measured in intact cells co-incubated with the diterpene forskalin (5 µM) which activates adenylyl cyclase directly and stimulates cyclic AMP accumulation in cells. The medium is aspirated from two 100 mm plates of cells, a 5 mL portion of phosphate-buffered saline containing 2 mM EDTA is added to each plate. The cells are washed off the plate, without scraping. The cells are then pelleted and resuspended in Kreb's Ringers Phosphate (KRP) containing 2 mM CaCl2 (added fresh), washed once and resuspended in 2 ml of KRP with a CaCl2 containing 100 µM IBMX. The cells are counted and the concentration of cells is adjusted to 50,000/70 µl and incubated 15 minutes at room temperature before starting the assay. […]

SSTR2 [2] = target: SSTR2 (Rattus norvegicus, UniProt P30680); experiment: Competitive binding, displacement of [125I]Tyr11 S-14; parameters: expressed in transfected cells; details: [125I]Tyr11 S-14 250 pM, room temperature 2 hours
Sequence of SSTR2 (Rattus norvegicus, UniProt P30680) (P30680 whole entry): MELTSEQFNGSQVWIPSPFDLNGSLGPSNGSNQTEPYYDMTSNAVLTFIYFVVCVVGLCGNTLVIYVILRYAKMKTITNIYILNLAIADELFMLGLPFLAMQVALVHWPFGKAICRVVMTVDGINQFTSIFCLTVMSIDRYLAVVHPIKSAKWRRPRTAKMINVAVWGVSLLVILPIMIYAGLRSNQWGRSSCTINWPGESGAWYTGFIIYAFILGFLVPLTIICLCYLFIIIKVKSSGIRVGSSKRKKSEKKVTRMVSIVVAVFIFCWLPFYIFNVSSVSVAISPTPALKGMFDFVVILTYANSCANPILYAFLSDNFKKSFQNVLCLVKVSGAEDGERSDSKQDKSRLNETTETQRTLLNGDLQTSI
Protocol: In this evaluation the concentration of test compound required to displace 50% of somatostatin, SRIF, from the SRIF receptor subtypes expressed in mammalian cells is measured, i.e., the concentration required to inhibit 50% of [^125I] Tyr^11 S-14 (Amersham) (IC50) from binding to the SRIF receptor subtypes.
Radiolabeled SRIF is mixed with pituitary cells, the test compound is added, the mixture is incubated and the radioactivity is measured as compared to control. Reduced radioactivity indicates successful competitive binding of the test compound to the pituitary cell receptor. The concentration of the test compound in nanomolar units required to displace 50% of SRIF from the pituitary cell receptor is calculated and reported in Table II as the IC50 value. Also calculated is the inhibitory constant, Ki.
Tyr^11S-14 (150,000 cpm at 2000 Ci/mmole, 250 pM final concentration). The binding reaction is initiated by adding 2-60µg of membrane protein in a 170 µL volume. Final reaction volume is 200 µl/well. All incubations are carried out at room temperature for 2 hours. Free radioligand is separated from bound ligand by rapid filtration through a glass fiber filter (IH-201-HA) using an Inotech cell harvester. The filter is then washed several times with cold (4°C) binding buffer lacking BSA and protease inhibitors prior to counting in an LKB gamma master counter (78% efficiency). Whatman GFC filters presoaked in 0.3% polyethylenimine (to decrease background) are used.
The IC50 values and Ki values are calculated using the well-known methods described by Y. Cheng and W. H. Prusoff, Biochem. Pharmacol. 22, 3099-3108 (1973), incorporated herein by reference thereto.

IC50 (SSTR2 [2]; membrane protein, read-out: SSTR2 Binding Affinity IC50) [nM]	Ki (SSTR2 [2]; calculated by Cheng and Prusoff, read-out: SSTR2 Binding Affinity Ki) [nM]	Compound	% IA (SSTR2 [1]) [%]
55	24.4	CC(C)[C@@H]1NC(=O)[C@H](CCCCN)NC(=O)[C@@H](Cc2c[nH]c3ccccc23)NC(=O)[C@H](Cc2ccc(O)cc2)NC(=O)[C@H](NC(=O)[C@@H](N)Cc2ccc([N+](=O)[O-])cc2)CSSC[C@@H](C(=O)N(C)[C@@H](C)C(N)=O)NC1=O [H-p-NO2Phe-D-Cys-Tyr-D-Trp-Lys-Val-Cys-N(CH3)Ala-NH2] (H-[Phe(4-NO2)][dC]Y[dW]KVC[NMeA]-NH2; disulfide 2-7)	29
		CC(C)[C@@H]1NC(=O)[C@H](CCCCN)NC(=O)[C@@H](Cc2c[nH]c3ccccc23)NC(=O)[C@H](Cc2ccc(O)cc2)NC(=O)[C@H](NC(=O)[C@H](N)Cc2ccc([N+](=O)[O-])cc2)CSSC[C@@H](C(=O)N[C@@H](Cc2ccc(O)cc2)C(N)=O)NC1=O (H-[dPhe(4-NO2)][dC]Y[dW]KVCY-NH2; disulfide 2-7)	42
		NCCCC[C@@H]1NC(=O)[C@@H](Cc2c[nH]c3ccccc23)NC(=O)[C@H](Cc2ccc(O)cc2)NC(=O)[C@H](NC(=O)[C@@H](N)Cc2ccc([N+](=O)[O-])cc2)CSSC[C@@H](C(=O)N[C@@H](Cc2ccc3ccccc3c2)C(N)=O)NC(=O)[C@H](CO)NC1=O (H-[Phe(4-NO2)][dC]Y[dW]KSC[2Nal]-NH2; disulfide 2-7)	7
		C[C@@H](O)[C@@H]1NC(=O)[C@H](CCCCN)NC(=O)[C@@H](Cc2c[nH]c3ccccc23)NC(=O)[C@H](Cc2ccc(O)cc2)NC(=O)[C@H](NC(=O)[C@@H](N)Cc2ccc(I)cc2)CSSC[C@@H](C(=O)N[C@@H](Cc2ccc(O)cc2)C(N)=O)NC1=O	-12
